Patent US4361579A, “Organogermanium compounds” (Yoshitomi Pharmaceutical Industries, Ltd., priority 1979, dated 1982)

What was measured:
emigrating leukocytes = test: Potentiating Activity for Leukocyte Migration (CMC pouch); assay type: in vivo, rat (male Donryu); details: 6 hours, vs control group
Method: The test was performed according to the method described by H. Ishikawa et al in "Yakugaku Zasshi (Journal of the Pharmaceutical Society of Japan)", vol. 88, 1472 (1968).
Male Donryu rats weighing about 150 g were divided into groups of 4 to 5 animals each. Five ml of 2% suspension of carboxymethylcellulose (CMC) in physiological saline was injected subcutaneously in the supra-scapular area. Compounds tested (0.4 ml/rat) were administered into the CMC pouch immediately after the injection of CMC suspension. Six hours later, 0.1 ml of fluid in the CMC pouch was collected and mixed with 6 ml of 0.05% brilliant cresyl blue solution in phosphate buffer (pH 7.2). The suspension was put in a Burker chamber and the emigrating leukocytes were counted under a microscope. The percent potentiation was calculated as compared with the count in the control group.

[1] = system: plaque forming cells (PFC) in spleen; test: Activity for Antibody Production: plaque forming cells (PFC) in spleen after sensitization with sheep red blood cells; assay type: in vivo, mouse (C57B1/6); details: Control = 100, 7 days after sensitization
Method: (§1) C57B1/6 mice (6 week old, 20 g) were sensitized by intraperitoneally administering sheep red blood cells of 5×10^8 /0.1 ml. Compounds tested were given orally on the same day and next day of the sensitization. Seven days after the sensitization, the number of plaque forming cells (PFC) in spleen and of rosette forming cells (RFC) in spleen and thymus were measured in a usual manner.

[2] = system: rosette forming cells (RFC) in spleen; test: Activity for Antibody Production: rosette forming cells (RFC) in spleen after sensitization with sheep red blood cells; assay type: in vivo, mouse (C57B1/6); details: Control = 100, 7 days after sensitization
Method: as §1

[3] = system: rosette forming cells (RFC) in thymus; test: Activity for Antibody Production: rosette forming cells (RFC) in thymus after sensitization with sheep red blood cells; assay type: in vivo, mouse (C57B1/6); details: Control = 100, 7 days after sensitization
Method: as §1

Adjuvant Arthritis = test: Prophylactic Effect on Adjuvant Arthritis (hind feet swelling); assay type: in vivo, rat (Lewis male); details: day 1 to day 20, hind feet swelling at 28 days
Method: The tails of Lewis male rats (250 g) were injected mycobacterium butyricum (0.5 mg/0.1 ml). Compounds tested were orally administered daily from the adjuvant inoculation day (day 1) to day 20. Swellings in the hind feet were measured at 28 days after the adjuvant inoculation.

rat = test: Acute Toxicity (rat, per os); assay type: in vivo; details: 2000 mg/kg
Description: | Acute Toxicity (rat, per os)

[4] = 30 mg/kg orally, *p < 0.05, **p < 0.01
[5] = 3 mg/kg orally, *p < 0.05, **p < 0.01

Substance | Potentiation (%) (emigrating leukocytes; 20 mg/rat into the CMC pouch) | PFC in Spleen ([1]; 30 mg/kg orally, *p < 0.05) | RFC in Spleen ([2]; 30 mg/kg orally, **p < 0.01) | RFC in Thymus [3, 4] | Inhibition (%) (Adjuvant Arthritis; 25 mg/kg orally daily) | Inhibition (%) (Adjuvant Arthritis; 100 mg/kg orally daily) | Potentiation (%) (emigrating leukocytes; 5 mg/rat into the CMC pouch) | Potentiation (%) (emigrating leukocytes; 10 mg/rat into the CMC pouch) | PFC in Spleen ([1]; 3 mg/kg orally) | RFC in Spleen ([2]; 3 mg/kg orally, *p < 0.05) | RFC in Thymus [3, 5] | also measured
poly(carboxyethylgermanium sesquioxide) [Comparison, reference compound] | 13 | 100 | 121 | 168 | -18 | 15 | – | – | – | – | – | –
polycondensation product of p-(N-ethyl-2-ethoxycarbonylacetylamino)phenylgermanium trihydroxide | 96 | – | – | – | – | – | 87 | – | – | – | – | Potentiation (%) (emigrating leukocytes; 0.25 mg/rat into the CMC pouch): 7%
polycondensation product of p-(N-ethyl-3-ethoxycarbonylpropionylamino)phenylgermanium trihydroxide [Compound D] | 210 | – | – | – | – | – | 7 | 33 | – | – | – | –
polycondensation product of p-(N-methyl-2-ethoxycarbonylacetylamino)phenylgermanium trihydroxide | 91 | 175 | 703 | 431 | 48 | – | – | 16 | 125 | 346 | 284 | PFC in Spleen ([1]; 1 mg/kg orally): 110; RFC in Spleen ([2]; 1 mg/kg orally): 157; RFC in Thymus ([3]; 1 mg/kg orally, **p < 0.01): 315; Inhibition (%) (Adjuvant Arthritis; 10 mg/kg orally daily): 22%; Mortality (rat): 0/5
polycondensation product of p-(N-methyl-3-carboxypropionylamino)phenylgermanium trihydroxide | 47 | – | – | – | 35 | 53 | – | 26 | 68 | 86 | 218 | –
polycondensation product of p-(N-methyl-3-ethoxycarbonylpropionylamino)phenylgermanium trihydroxide | – | 81 | 108 | 248 | 5 | 31 | 87 | – | – | – | – | Potentiation (%) (emigrating leukocytes; 2.5 mg/rat into the CMC pouch): 17%
polycondensation product of p-(N-methyl-4-carboxybutyrylamino)phenylgermanium trihydrodie | – | – | – | – | – | – | – | 44 | 95 | 85 | 141 | –
polycondensation product of p-(N-methyl-4-ethoxycarbonylbutyrylamino)phenylgermanium trihydroxide | 56 | – | – | – | – | – | – | – | – | – | – | –
polycondensation product of p-(N-methyl-m-methylbenzoylamino)phenylgermanium trihydroxide | 55 | – | – | – | – | – | – | 46 | – | – | – | –
